Data on 13 compounds can be found in patent US12297194B2, “N2-phenylpyrimidine-2,4-diamine compounds, and preparation methods and methods of use thereof” (BRIDGE BIOTHERAPEUTICS, INC., priority 2021, dated 2025).

Holding throughout (format): cell-based, murine
The target of test [1] is Ba/F3 EGFR Del19/T790M/C797S mutants (Homo sapiens, UniProt P00533, T790M/C797S, cells depend on it, form not given). Nature of the test: CellTiter-Glo cell viability, Ba/F3 EGFR Del19/T790M/C797S cells. Conditions: 72 hours, read-out: Ba/F3 EGFR mutant cell (IC50, nM) D/T/C. The procedure, abridged: (§1)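 IC50 values derive from CellTiter-Glo luminescence measured after 72 hours of treatment of EGFR-dependent Ba/F3 cells, dosed at concentrations up to 2000 nM starting 24 hours after seeding.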
(In general: In ATP-based viability assays light output follows the ATP content of the culture.)

Test [2] deals with Ba/F3 EGFR Wild-type (Homo sapiens, UniProt P00533). Nature of the test: CellTiter-Glo cell viability, Ba/F3 EGFR wild-type cells. The settings on record: 72 hours, read-out: Ba/F3 EGFR mutant cell (IC50, nM) WT. The procedure, abridged: as §1
The target of test [3] is Ba/F3 EGFR Del19/C797S mutants (Homo sapiens, UniProt P00533, C797S, cells depend on it, form not given). Put plainly: CellTiter-Glo cell viability, Ba/F3 EGFR Del19/C797S cells. Conditions: 72 hours, read-out: Ba/F3 EGFR mutant cell (IC50, nM) D/C. The method in brief:
as §1

The target in test [4] is Ba/F3 EGFR L858R/C797S mutants (Homo sapiens, UniProt P00533, C797S/L858R, cells depend on it). Put plainly: CellTiter-Glo cell viability, Ba/F3 EGFR L858R/C797S cells. Conditions: 72 hours, read-out: Ba/F3 EGFR mutant cell (IC50, nM) L/C. The method in brief: as §1
The target of test [5] is Ba/F3 EGFR Del19/T790M mutants (Homo sapiens, UniProt P00533, T790M, cells depend on it, form not given). Put plainly: CellTiter-Glo cell viability, Ba/F3 EGFR Del19/T790M cells. Conditions: 72 hours, read-out: Ba/F3 EGFR mutant cell (IC50, nM) D/T. The method, then: In order to evaluate an inhibitory ability on wild-type Ba/F3 EGFR and Ba/F3 EGFR mutations in Ba/F3 cell lines by the compounds of Formula 1, the experiment was carried out as described below.
The measurement of activities on Ba/F3 cells harboring wild-type EGFR and EGFR mutants by the compounds of the present invention were determined utilizing the CELLTITER-GLO™ system from Promega, as follows. The CELLTITER-GLO™ assay is a method for measuring the ATP present in cells to determine the cell viability. Ba/F3 EGFR wild-type and Ba/F3 EGFR L858R/C797S (L/C), Ba/F3 EGFR L858R/T790M/C797S (L/T/C), Ba/F3 EGFR Del19/T790M (D/T), Ba/F3 EGFR Del19/C797S (D/C), Ba/F3 EGFR Del19/T790M/C797S (D/T/C) mutant cell lines were maintained in RPMI1640, containing […], 1% penicillin-streptomycin, […] puromycin. Cells were grown in a humidified incubator at 37° C. with […].
The analysis of an EGFR inhibitory activity by the compounds was carried out in accordance with the analysis reaction recipe below.
2500 cells/90 μL were seeded in 96 well cell culture plate, and after 24 hours, treated with the compounds represented by Formula 1 in concentrations of 0, 0.3, 0.9, 2.7, 8.2, 24.7, 74.1, 222.2, 666.7, 2000 (nM). After the reaction of 72 hours, the plate was incubated for 30 minutes at ambient temperature, and then, was further treated with 100 μL of the CELLTITER-GLO™ reagent and was shaken for 10 minutes at ambient temperature. Finally, measurement of the luminescence values were obtained using the SPECTRAMAX™ iD3 (Molecular Devices), and the IC50 values of the compound were analyzed using the GraphPad Prism program (version 9.0.2, GraphPad Software, Inc.).

The target in test [6] is Ba/F3 EGFR L858R/T790M/C797S mutants (Homo sapiens, UniProt P00533, T790M/C797S/L858R, cells depend on it). Nature of the test: CellTiter-Glo cell viability, Ba/F3 EGFR L858R/T790M/C797S cells. Conditions: 72 hours, read-out: Ba/F3 EGFR mutant cell (IC50, nM) L/T/C. The method in brief:
as §1

Each structure is given as a SMILES string. Bounds are passed on as bounds.

Sequence of Ba/F3 EGFR L858R/C797S mutants (P00533 whole entry C797S/L858R): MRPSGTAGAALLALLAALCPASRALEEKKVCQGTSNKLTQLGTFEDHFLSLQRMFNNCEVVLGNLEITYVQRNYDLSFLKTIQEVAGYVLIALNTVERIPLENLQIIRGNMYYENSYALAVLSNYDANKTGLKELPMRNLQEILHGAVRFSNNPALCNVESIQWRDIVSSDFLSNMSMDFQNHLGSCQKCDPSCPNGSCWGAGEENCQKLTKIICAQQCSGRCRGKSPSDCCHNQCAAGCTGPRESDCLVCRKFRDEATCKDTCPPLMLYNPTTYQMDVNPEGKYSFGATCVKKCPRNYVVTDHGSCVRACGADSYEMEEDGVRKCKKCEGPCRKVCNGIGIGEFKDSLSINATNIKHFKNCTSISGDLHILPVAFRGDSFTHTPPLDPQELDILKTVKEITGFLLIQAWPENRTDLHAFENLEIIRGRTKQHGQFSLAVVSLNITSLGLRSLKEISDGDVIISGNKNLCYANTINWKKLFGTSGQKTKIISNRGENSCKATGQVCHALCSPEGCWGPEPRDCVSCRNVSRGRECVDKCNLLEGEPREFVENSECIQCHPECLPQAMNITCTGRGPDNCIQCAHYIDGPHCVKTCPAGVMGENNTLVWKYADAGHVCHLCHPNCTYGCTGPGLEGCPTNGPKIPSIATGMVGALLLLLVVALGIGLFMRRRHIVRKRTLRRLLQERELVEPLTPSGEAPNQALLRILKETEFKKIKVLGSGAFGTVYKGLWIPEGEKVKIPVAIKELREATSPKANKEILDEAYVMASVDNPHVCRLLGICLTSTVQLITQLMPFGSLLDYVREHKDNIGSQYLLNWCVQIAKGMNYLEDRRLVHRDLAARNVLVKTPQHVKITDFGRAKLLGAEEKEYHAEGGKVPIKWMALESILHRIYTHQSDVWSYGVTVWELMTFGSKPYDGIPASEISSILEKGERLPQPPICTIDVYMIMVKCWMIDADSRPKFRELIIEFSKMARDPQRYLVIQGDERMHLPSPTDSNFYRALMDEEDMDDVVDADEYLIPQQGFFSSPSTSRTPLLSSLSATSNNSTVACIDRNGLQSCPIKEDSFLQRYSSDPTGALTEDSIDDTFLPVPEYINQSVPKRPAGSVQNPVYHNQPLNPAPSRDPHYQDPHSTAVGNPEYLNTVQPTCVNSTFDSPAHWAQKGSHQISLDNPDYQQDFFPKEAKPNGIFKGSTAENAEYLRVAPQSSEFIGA
Sequence of Ba/F3 EGFR Del19/T790M mutants (P00533 with tags, fused parts or gaps DEL746-750/T790M, form open): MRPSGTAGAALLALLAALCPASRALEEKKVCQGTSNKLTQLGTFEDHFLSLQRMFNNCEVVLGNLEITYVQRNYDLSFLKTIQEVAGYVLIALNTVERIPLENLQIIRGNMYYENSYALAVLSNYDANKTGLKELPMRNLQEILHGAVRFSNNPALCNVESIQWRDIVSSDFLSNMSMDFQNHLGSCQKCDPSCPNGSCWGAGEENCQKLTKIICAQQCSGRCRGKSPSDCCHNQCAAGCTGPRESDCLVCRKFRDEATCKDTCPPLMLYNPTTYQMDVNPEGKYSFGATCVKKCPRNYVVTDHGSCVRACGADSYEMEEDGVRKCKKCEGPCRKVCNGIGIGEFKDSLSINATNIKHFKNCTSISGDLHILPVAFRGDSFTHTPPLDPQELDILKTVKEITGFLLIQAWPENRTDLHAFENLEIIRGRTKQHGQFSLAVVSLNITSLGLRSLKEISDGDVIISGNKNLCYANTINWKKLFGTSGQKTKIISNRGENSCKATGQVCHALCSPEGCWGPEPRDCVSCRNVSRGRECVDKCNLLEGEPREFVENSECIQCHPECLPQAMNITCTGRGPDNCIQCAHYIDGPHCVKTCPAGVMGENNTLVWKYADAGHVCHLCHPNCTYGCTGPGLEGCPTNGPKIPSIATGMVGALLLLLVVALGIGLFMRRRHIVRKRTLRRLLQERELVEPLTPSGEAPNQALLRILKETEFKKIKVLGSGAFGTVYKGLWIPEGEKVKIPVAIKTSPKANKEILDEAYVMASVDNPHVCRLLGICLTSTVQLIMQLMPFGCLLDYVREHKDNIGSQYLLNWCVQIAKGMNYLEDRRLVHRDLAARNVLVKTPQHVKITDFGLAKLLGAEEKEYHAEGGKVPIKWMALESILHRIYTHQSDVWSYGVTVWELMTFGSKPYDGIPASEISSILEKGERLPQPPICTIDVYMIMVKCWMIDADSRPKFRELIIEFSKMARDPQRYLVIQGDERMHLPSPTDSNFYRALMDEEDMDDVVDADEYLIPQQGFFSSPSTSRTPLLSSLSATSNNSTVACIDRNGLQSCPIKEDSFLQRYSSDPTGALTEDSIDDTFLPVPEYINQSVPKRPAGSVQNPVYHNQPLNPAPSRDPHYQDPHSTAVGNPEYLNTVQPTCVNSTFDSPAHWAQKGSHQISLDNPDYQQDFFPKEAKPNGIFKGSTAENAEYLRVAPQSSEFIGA
Sequence of Ba/F3 EGFR Wild-type (P00533 whole entry, stated change not applied): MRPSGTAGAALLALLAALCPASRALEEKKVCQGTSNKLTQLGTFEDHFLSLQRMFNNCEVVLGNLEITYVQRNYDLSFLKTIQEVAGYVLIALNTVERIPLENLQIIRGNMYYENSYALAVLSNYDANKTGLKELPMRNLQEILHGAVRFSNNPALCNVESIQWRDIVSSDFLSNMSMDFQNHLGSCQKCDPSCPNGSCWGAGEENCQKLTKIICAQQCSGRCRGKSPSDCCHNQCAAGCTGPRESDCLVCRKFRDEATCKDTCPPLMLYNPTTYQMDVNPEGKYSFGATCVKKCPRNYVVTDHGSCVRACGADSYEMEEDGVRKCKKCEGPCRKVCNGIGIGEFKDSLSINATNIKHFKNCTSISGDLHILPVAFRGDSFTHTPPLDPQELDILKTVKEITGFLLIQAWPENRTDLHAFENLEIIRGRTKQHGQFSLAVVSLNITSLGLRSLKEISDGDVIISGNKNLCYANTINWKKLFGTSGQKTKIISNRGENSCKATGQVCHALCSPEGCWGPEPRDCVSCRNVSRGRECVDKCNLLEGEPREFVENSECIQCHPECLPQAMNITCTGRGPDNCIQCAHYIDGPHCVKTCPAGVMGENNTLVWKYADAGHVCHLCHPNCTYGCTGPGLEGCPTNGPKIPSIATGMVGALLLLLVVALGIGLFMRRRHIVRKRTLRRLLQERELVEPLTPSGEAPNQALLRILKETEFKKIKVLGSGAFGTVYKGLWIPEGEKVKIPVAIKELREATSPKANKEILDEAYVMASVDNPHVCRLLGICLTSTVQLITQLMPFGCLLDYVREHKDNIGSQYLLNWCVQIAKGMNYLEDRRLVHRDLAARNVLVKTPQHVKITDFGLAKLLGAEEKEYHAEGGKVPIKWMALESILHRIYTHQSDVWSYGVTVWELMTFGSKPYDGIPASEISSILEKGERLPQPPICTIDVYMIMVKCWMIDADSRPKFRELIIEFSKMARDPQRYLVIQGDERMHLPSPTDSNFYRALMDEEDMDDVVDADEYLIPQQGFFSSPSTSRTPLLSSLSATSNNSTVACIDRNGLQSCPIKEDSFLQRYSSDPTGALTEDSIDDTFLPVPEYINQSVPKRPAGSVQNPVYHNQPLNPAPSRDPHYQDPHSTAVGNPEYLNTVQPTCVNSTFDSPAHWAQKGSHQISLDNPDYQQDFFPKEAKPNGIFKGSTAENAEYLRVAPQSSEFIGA
Sequence of Ba/F3 EGFR L858R/T790M/C797S mutants (P00533 whole entry T790M/C797S/L858R): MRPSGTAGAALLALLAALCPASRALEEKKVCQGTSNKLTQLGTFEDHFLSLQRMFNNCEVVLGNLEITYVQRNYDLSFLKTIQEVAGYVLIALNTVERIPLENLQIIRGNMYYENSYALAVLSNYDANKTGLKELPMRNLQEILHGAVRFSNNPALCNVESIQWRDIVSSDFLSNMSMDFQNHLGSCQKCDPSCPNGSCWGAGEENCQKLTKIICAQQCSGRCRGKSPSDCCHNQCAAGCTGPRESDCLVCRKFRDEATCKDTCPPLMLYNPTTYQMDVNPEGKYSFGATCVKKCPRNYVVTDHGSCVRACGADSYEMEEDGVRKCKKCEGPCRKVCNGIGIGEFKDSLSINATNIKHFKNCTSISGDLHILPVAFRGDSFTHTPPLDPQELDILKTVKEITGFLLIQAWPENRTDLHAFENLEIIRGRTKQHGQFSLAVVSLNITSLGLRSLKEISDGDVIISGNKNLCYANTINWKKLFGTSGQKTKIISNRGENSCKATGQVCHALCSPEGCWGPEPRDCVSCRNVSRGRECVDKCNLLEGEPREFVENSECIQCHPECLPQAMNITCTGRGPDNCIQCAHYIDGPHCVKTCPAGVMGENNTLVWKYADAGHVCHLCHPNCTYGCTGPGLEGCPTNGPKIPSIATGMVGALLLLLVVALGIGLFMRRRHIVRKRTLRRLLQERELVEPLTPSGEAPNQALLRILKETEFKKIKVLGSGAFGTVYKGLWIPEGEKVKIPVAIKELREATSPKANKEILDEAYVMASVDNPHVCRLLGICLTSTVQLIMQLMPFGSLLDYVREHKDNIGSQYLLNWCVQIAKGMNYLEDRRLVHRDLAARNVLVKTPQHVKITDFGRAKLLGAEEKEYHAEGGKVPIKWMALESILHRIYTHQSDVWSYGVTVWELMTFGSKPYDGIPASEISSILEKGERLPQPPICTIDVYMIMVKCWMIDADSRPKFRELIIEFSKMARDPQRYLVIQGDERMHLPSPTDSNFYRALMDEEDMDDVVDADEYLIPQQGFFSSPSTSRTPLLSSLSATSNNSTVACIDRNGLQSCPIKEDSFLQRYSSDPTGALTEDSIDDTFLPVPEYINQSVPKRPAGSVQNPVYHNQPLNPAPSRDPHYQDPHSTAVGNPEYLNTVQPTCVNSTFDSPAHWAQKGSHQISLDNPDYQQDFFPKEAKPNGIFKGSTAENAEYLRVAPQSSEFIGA

Take `COc1cc(N2CCC(N3CCN(C)CC3)CC2)ccc1Nc1ncc(Cl)c(Nc2ccc3scnc3c2NS(C)(=O)=O)n1` [Example C8, N-(5-((5-chloro-2-((2-methoxy-4-(4-(4-methylpiperazin-1-yl)piperidin-1-yl)phenyl)amino)pyrimidin-4-yl)amino)benzo[d]thiazol-4-yl)methanesulfonamide]: the GI50 was 170 nM in test [1]; 804 nM in test [2]; 210 nM in test [3]; 316 nM in test [4]; 94 nM in test [5]; 308 nM in test [6].

On to `CCc1cc(Nc2ncc(Br)c(Nc3ccc4nccnc4c3NS(C)(=O)=O)n2)c(OC)cc1N1CCC(N2CCCC2)CC1` [Example A33, N-(6-((5-bromo-2-((5-ethyl-2-methoxy-4-(4-(pyrrolidin-1-yl)piperidin-1-yl)phenyl)amino)pyrimidin-4-yl)amino)quinoxalin-5-yl)methanesulfonamide], for which the GI50 in test [1] is 6 nM; in test [2], > 2000 nM; in test [3], 4 nM; in test [4], 57 nM; in test [5], 8 nM; in test [6], 18 nM.

Turning to `COc1cc(N2CCC(N(C)C)CC2)c(C)cc1Nc1ncc(Br)c(Nc2ccc3nccnc3c2N(C)S(C)(=O)=O)n1` [Example B7, N-(6-((5-bromo-2-((4-(4-(dimethylamino)piperidin-1-yl)-2-methoxy-5-methylphenyl)amino)pyrimidin-4-yl)amino)quinoxalin-5-yl)-N-methylmethanesulfonamide], the GI50 in test [1] is 8 nM; in test [2], 595 nM; in test [3], 34 nM; in test [4] it was 98 nM; in test [5] it was 21 nM; in test [6], 33 nM.

`COc1cc(N2CCN([C@@H]3CCN(C)C[C@@H]3F)CC2)ccc1Nc1ncc(Cl)c(Nc2ccc3nccnc3c2NS(C)(=O)=O)n1` [Example A36, N-(6-((5-chloro-2-((4-(4-((3S,4R)-3-fluoro-1-methylpiperidin-4-yl)piperazin-1-yl)-2-methoxyphenyl)amino)pyrimidin-4-yl)amino)quinoxalin-5-yl)methane sulfonamide]: the GI50 came out at 241 nM in test [1]; 657 nM in test [2]; 111 nM in test [3]; 267 nM in test [4]; 73 nM in test [5]; 485 nM in test [6].

As for `CCCc1cc(Nc2ncc(Cl)c(Nc3ccc4nccnc4c3N(C)S(C)(=O)=O)n2)c(OC)cc1N1CCC(N2CCCC2)CC1` [Example A42, N-(6-((5-chloro-2-((2-methoxy-5-propyl-4-(4-(pyrrolidin-1-yl)piperidin-1-yl)phenyl)amino)pyrimidin-4-yl)amino)quinoxalin-5-yl)-N-methylmethanesulfonamide], the GI50 was 7 nM in test [1]; 1860 nM in test [2]; 2 nM in test [3]; 80 nM in test [4]; 33 nM in test [5]; 117 nM in test [6].

As for `COc1cc(C2CCNCC2)c(F)cc1Nc1ncc(Cl)c(Nc2ccc3nccnc3c2NS(C)(=O)=O)n1` [Example B21, N-(6-((5-chloro-2-((5-fluoro-2-methoxy-4-(piperidin-4-yl)phenyl)amino)pyrimidin-4-yl)amino)quinoxalin-5-yl)methanesulfonamide], the GI50 in test [1] was 448 nM; in test [2] it was 1730 nM; in test [3], 342 nM; in test [4], 500 nM; in test [5], 469 nM; in test [6] it was 693 nM.

Regarding `COc1cc(C2CCNCC2)ccc1Nc1ncc(Cl)c(Nc2ccc3nccnc3c2NC(C)=O)n1` [Example D3, N-(6-((5-chloro-2-((2-methoxy-4-(piperidin-4-yl)phenyl)amino)pyrimidin-4-yl)amino)quinoxalin-5-yl)acetamide], the GI50 in test [1] was 717 nM; in test [2] it was > 2000 nM; in test [3] it was 378 nM; in test [4], 1030 nM; in test [5] it was 678 nM; in test [6], 1180 nM.

In the case of `CCc1cc(Nc2ncc(Cl)c(Nc3ccc(OC)c(OC)c3NS(C)(=O)=O)n2)c(OC)cc1N1CCC(N2CCOCC2)CC1` [Example C18, N-(6-((5-chloro-2-((5-ethyl-2-methoxy-4-(4-morpholinopiperidin-1-yl)phenyl)amino)pyrimidin-4-yl)amino)-2,3-dimethoxyphenyl)methanesulfonamide], the GI50 was determined as 54 nM in test [1]; 835 nM in test [2]; 55 nM in test [3]; 215 nM in test [4]; 39 nM in test [5]; 194 nM in test [6].

Turning to `CCc1cc(Nc2ncc(Br)c(Nc3ccc4c(c3N(C)S(C)(=O)=O)OCCO4)n2)c(OC)cc1N1CCC(N2CCN(C)CC2)CC1` [Example C28, N-(6-((5-bromo-2-((5-ethyl-2-methoxy-4-(4-(4-methylpiperazin-1-yl)piperidin-1-yl)phenyl)amino)pyrimidin-4-yl)amino)-2,3-dihydrobenzo[b][1,4]dioxin-5-yl)-N-methylmethanesulfonamide], the GI50 in test [1] was 10 nM; in test [2], 699 nM; in test [3], 7 nM; in test [4] it was 68 nM; in test [5], 10 nM; in test [6], 13 nM.

As for `CCc1cc(Nc2ncc(Br)c(Nc3ccc4nccnc4c3N(C)S(C)(=O)=O)n2)c(OC)cc1N1CCC(N(C)C)CC1` [Example B14, N-(6-((5-bromo-2-((4-(4-(dimethylamino)piperidin-1-yl)-5-ethyl-2-methoxyphenyl)amino)pyrimidin-4-yl)amino)quinoxalin-5-yl)-N-methylmethanesulfonamide], the GI50 is 8 nM in test [1]; 427 nM in test [2]; 6 nM in test [3]; 41 nM in test [4]; 3 nM in test [5]; 23 nM in test [6].

For `COc1cc(C2CCNCC2)ccc1Nc1ncc(Cl)c(Nc2ccc3nccnc3c2NS(C)(=O)=O)n1` [Example B15, N-(6-((5-chloro-2-((2-methoxy-4-(piperidin-4-yl)phenyl)amino)pyrimidin-4-yl)amino)quinoxalin-5-yl)methanesulfonamide], the GI50 was 746 nM in test [1]; > 2000 nM in test [2]; 581 nM in test [3]; 1540 nM in test [4]; 1310 nM in test [5]; 2140 nM in test [6].

As for `CCCc1cc(Nc2ncc(Cl)c(Nc3ccc4nccnc4c3NS(C)(=O)=O)n2)c(OC)cc1N1CCC(N2CCN(C)CC2)CC1` [Example A6, N-(6-((5-chloro-2-((2-methoxy-4-(4-(4-methylpiperazin-1-yl)piperidin-1-yl)-5-propylphenyl)amino)pyrimidin-4-yl)amino)quinoxalin-5-yl)methanesulfonamide], the GI50 was found to be 4 nM in test [1]; 498 nM in test [2]; 14 nM in test [3]; 29 nM in test [4]; 5 nM in test [5]; 12 nM in test [6].

With `COc1cc(N2CCC(N3CCN(C)CC3)CC2)c(F)cc1Nc1ncc(Br)c(Nc2ccc3nccnc3c2NS(C)(=O)=O)n1` [Example A27, N-(6-((5-bromo-2-((5-fluoro-2-methoxy-4-(4-(4-methylpiperazin-1-yl)piperidin-1-yl)phenyl)amino)pyrimidin-4-yl)amino)quinoxalin-5-yl)methanesulfonamide], the GI50 was 192 nM in test [1]; 183 nM in test [2]; 101 nM in test [3]; 184 nM in test [4]; 27 nM in test [5]; 65 nM in test [6].
